For this test, the target named is T1, PDGFR-beta (Homo sapiens, UniProt P09619).
T1 construct: the human glioblastoma line U1242 that expresses PDGFR-beta; endogenous in cells; host or cells: U1242 (U1242 MG) human glioblastoma
Kind of test: PDGF-R Cellular Assay (cellular kinase ELISA). It counts as cell-based. The protocol: Growth assays were carried out using human mammary epithelial SKBR3 (ATCC HTB30) cells (SKBR3 cells over-express HER2), SKOV3 (ATCC HTB77) human ovarian cancer cell line (SKOV3 cells also over-express HER2), A431 cells (A431 cells over-express EGFR) MCF7 human breast carcinoma cells, MCF7 cells overexpressing the HER2 kinase (MCF7-HER2), NIH3T3 cells, and NIH3T3 cells overexpressing the HER2 kinase (3T3-HER2.
The PDGF cellular kinase assay was carried out as follows: cells are lysed in 0.2M Hepes, 0.15M NaCl, 10% V/V glycerol, 0.04% Triton X-100, 5 mM EDTA, 5 mM Na+ vanadate and 2 mM Na+ pyrophosphate; cell lysates are then added to an ELISA plate coated with an anti-PDGF receptor antibody (Genzyme); ELISA plates are coated at 0.5 μg of antibody/well in 150 μl of PBS for 18 hours at 4° C. prior to the addition of the lysate; the lysate is incubated in the coated plates for 1 hour and then washed four times in TBST (35 mM Tris-HCl pH 7.0, 0.15M NaCl, 0.1% Triton X100); anti-phosphotyrosine antibody (100 μl in PBS) is added and the mixture is incubated for 30 minutes at room temperature; the wells were then washed four times in TBST, a secondary antibody conjugated to POD (TAGO) is added to each well, and the treated well are incubated for 30 minutes at room temperature; the wells are then washed four times in TBST, ABTS/H2 O2 solution is added to each well and the wells are incubated for two minutes; absorbance is then measured at 410 nm.
U1242 MG cells were plated in 96-well plates at a concentration of 5×10^4 cells/well in cultured media containing 0.5% FBS. The cells were incubated for 24 hours. The cells were then treated with a particular compound for 2 hours followed by the addition of 100 ng/ml PDGF-BB and incubation for 10 minutes.
Cells were lysed in 0.2M Hepes, 0.15M NaCl, 10% V/V glycerol, 0.04% Triton X-100, 5 mM EDTA, 5 mM Na+ vanadate and 2 mM Na+ pyrophosphate. Cell lysates were then added to an ELISA plate coated with an anti-PDGF receptor antibody (Genzyme). ELISA plates were coated at 0.5 μg of antibody/well in 150 μl of PBS for 18 hours at 4° C. prior to the addition of the lysate.
The lysate was incubated in the coated plates for 1 hour and then washed four times in TBST (35 mM Tris-HCl pH 7.0, 0.15M NaCl, 0.1% Triton X-100). Anti-phosphotyrosine antibody (100 μl in PBS) was added and the mixture was incubated for 30 minutes at room temperature. The wells were then washed four times in TBST, a secondary antibody conjugated to POD (TAGO) was added to each well, and the treated well were incubated for 30 minutes at room temperature. The wells were then washed four times in TBST, ABTS/H2 O2 solution was added to each well and the wells were incubated for two minutes. Absorbance was then measured at 410 nm.
For orientation: ELISA stands for enzyme-linked immunosorbent assay.

Setting [1] is: U1242 MG cells, PDGF-BB stimulated, read-out: ELISA DATA: PDGFR.

Read-outs that look alike come from different tables or passages of the source.

T1 sequence (P09619 33-1106): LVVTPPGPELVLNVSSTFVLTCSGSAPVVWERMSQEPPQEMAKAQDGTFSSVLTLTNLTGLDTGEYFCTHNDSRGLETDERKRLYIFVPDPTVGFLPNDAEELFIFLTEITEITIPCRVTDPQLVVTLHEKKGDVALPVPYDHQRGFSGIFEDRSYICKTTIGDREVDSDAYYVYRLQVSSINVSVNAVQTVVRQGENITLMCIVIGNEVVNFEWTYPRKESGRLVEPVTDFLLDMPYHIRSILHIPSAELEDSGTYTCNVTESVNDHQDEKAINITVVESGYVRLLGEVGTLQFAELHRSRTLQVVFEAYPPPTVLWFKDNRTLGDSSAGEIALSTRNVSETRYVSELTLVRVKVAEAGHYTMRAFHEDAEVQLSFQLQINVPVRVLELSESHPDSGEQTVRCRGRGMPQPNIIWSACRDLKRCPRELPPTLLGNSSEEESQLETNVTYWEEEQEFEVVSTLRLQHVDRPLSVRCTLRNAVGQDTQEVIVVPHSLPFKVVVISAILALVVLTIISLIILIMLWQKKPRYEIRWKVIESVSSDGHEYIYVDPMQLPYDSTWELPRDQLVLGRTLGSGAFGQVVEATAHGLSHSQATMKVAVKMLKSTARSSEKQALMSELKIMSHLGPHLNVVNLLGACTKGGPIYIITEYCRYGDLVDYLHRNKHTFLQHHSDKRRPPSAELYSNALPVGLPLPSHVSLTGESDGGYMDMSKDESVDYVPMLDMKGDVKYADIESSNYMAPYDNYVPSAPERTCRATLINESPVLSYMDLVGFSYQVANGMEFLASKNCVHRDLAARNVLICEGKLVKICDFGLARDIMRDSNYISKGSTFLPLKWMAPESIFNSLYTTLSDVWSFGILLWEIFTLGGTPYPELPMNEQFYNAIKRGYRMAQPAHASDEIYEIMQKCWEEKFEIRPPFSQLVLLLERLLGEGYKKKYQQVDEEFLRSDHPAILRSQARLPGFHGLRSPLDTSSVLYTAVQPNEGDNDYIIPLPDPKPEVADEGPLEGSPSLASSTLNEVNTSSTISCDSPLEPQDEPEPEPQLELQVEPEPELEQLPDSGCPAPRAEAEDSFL

For `CC(C)S(=O)(=O)c1csc(NC(=O)Nc2cc(C(F)(F)F)cc(C(F)(F)F)c2)c1Cl` [Example Z2, N-[3-Chloro-4-(isopropylsulfonyl)thien-2-yl]-N'-(3,5-di-trifluoromethylphenyl)urea], under setting [1], the IC50 was more than 50 µM.

Turning to `O=C(Nc1ccc(SC(F)(F)F)cc1)Nc1ccc(Oc2ccc(Cl)cc2Cl)nc1` [Example Z3], the IC50 was more than 100 µM.

For the compound `N#Cc1ccc(NC(=S)Nc2ccc(S(=O)(=O)N3CCCCC3)cc2)cc1` [Example Z4, N-(4-Cyanophenyl)-N'-[4-[(piperid-1-yl)sulfonyl]phenyl]thiourea], the IC50 under setting [1] was more than 100 µM.

For `CC(C)S(=O)(=O)c1csc(NC(=O)Nc2ccc(C(C)(C)C)cc2)c1Cl` [Example Z1, N-[3-Chloro-4-(isopropylsulfonyl)thien-2-yl]-N'-(4-t-butylphenyl)urea], the IC50 under setting [1] was more than 50 µM.

Source of the values: patent US5773459A, “Urea- and thiourea-type compounds” (Sugen, Inc., priority 1995, dated 1998).
